This is an account of results in patent US11555026B2, “AHR inhibitors and uses thereof” (Ikena Oncology, Inc., priority 2017, dated 2023).

For this assay, the target named is T1, AHR (UniProt P35869).
T1 sequence (P35869 1-848): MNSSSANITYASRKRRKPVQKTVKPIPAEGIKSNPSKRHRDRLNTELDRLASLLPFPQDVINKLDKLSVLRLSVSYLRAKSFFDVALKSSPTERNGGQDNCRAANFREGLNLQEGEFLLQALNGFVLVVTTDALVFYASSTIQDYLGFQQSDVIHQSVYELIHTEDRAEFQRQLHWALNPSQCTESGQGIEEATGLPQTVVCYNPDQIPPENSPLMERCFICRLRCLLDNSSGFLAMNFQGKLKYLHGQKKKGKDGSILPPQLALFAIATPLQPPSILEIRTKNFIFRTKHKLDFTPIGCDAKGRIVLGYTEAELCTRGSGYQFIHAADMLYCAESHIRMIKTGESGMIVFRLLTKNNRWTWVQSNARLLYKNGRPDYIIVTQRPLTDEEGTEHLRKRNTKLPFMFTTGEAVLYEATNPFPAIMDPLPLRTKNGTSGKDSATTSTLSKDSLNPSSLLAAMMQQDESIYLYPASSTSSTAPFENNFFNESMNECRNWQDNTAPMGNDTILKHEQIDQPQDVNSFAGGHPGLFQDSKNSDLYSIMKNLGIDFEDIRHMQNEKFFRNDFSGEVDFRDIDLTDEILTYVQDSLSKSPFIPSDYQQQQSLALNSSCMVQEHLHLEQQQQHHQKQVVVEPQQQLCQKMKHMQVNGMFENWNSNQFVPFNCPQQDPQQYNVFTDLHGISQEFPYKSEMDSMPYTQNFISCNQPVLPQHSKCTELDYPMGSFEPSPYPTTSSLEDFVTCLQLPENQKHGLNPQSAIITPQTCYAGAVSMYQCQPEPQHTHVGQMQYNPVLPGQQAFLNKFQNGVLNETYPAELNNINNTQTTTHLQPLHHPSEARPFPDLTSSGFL
As to the kind of experiment: DRE-Luciferase Reporter Assay (Alternate Method, Example 1B). Format: cell-based. Details: IC50; other: alternate method: compound and agonist added at plating or after overnight incubation; murine (Hepa1-6, He). The following applies: alternate method: compound and agonist added at plating or after overnight incubation; murine (Hepa1-6, Hepa-1c1c7) or human (HepG2) DRE-luciferase reporter cells, cell line used not stated. The protocol: AHR binds to Dioxin Responsive Elements (DRE) upstream of genes that it activates. One measure of AHR activity is activation of a reporter gene, such as luciferase, downstream of one or multiple DRE elements. Luciferase activity will reflect activation and inhibition of AHR in the cells expressing his reporter.
Murine Hepa1-6 or Hepa-1c1c7 or other murine cell line with a DRE-luciferase reporter either stably or transiently transfected were plated in media in plates (96-well, 384-well or other plates) and incubated overnight at 37° C. in a CO2 incubator or compound and agonist were added at the time of plating. Likewise, human HepG2 or other human cell line with a DRE-luciferase reporter either stably or transiently transfected were plated in media in plates (96-well, 384-well or other plates) and incubated overnight at 37° C. in a CO2 incubator or compound and agonist were added at the time of plating.
At the time that cells are plated or following incubation overnight, an AHR activating ligand, such as TCDD, kynurenine, ITE (2-(1H-indole-3-ylcarbonyl)-4-thiazolecarboxylic methyl ester), VAF347, BNF (beta-naphthoflavone), FICZ (6-formylindolo(3,2-b) carbazole or other AHR ligands, was added with or without AHR antagonist.
Cells were incubated for 4, 15 or 24 hours or another time point and then lysed for determination of luciferase activity as a read-out of the AHR activation or inhibition. Luciferase was measured with a commercial kit such as the Promega Luciferase kit or any kit or reagents that provide the luciferin substrate for measuring luciferase activity. The level of luciferase with only activating ligand added was the maximum signal while the luciferase with no ligand was the minimum signal. IC50 values were determined as the concentration which inhibits half of the luciferase activity.

Where only a bound is given, the exact number is not on record here.

The IC50 is the concentration that inhibits the measured activity by half. A higher IC50 goes with weaker potency in that assay. Regarding `Cn1nccc1C(=O)Nc1ccc2cc(-c3cccc(N4CCOCC4)c3)cnc2c1` [I-85, 2-Methyl-N-[3-(3-morpholinophenyl)-7-quinolyl]pyrazole-3-carboxamide], the IC50 was above 1500 nM. In turn, `CC(C)n1nccc1C(=O)Nc1ccc2cc(-c3ccccc3)cnc2c1` [I-76, 2-Isopropyl-N-(3-phenyl-7-quinolyl)pyrazole-3-carboxamide] gave an IC50 above 1500 nM. For `Cc1cc(/N=N/c2cccc3ccccc23)ccc1NC(=O)c1ccnn1C` [I-75] the value was 500 to 1000 nM. For `Cc1cc(/C=C/c2ccccc2)ccc1N(C)C(=O)c1ccnn1C` [I-66] the value was 500 to 1000 nM.

The compound `Cc1ccccc1-c1cnc2ccc(NC(=O)c3ccnn3C)c(C)c2c1` [I-69] had an IC50 above 1500 nM. For the compound `Cn1nccc1C(=O)Nc1cnc2cc(-c3ccccc3)ccc2c1` [I-67], the IC50 lay in the range of 500 to 1000 nM.

In the case of `Cc1cc(C#Cc2cccc3c2OCO3)ccc1NC(=O)c1ccnn1C` [I-53, N-[4-[2-(1,3-Benzodioxol-4-yl)ethynyl]-2-methyl-phenyl]-2-methyl-pyrazole-3-carboxamide], the IC50 is above 1500 nM.

For the compound `Cc1c(NC(=O)c2ccnn2C)ccc2nc(-c3ccccc3)ccc12` [I-68], the IC50 is above 1500 nM. Next, `Cn1nccc1C(=O)Nc1ccc2cc(C3CCCCC3)cnc2c1` [I-49, N-(3-Cyclohexyl-7-quinolyl)-2-methyl-pyrazole-3-carboxamide]: above 1500 nM.

In turn, `Cn1nccc1C(=O)Nc1ccc2cc(-c3ccccc3C(F)(F)F)cnc2c1` [I-88, 2-Methyl-N-[3-[2-(trifluoromethyl)phenyl]-7-quinolyl]pyrazole-3-carboxamide] registered a half-inhibitory concentration (IC50) above 1500 nM. Next, `Cn1nccc1C(=O)Nc1ccc2cc(-c3ccccc3O)cnc2c1` [I-81, N-[3-(2-Hydroxyphenyl)-7-quinolyl]-2-methyl-pyrazole-3-carboxamide]: 1000 to 1500 nM; `Cn1nccc1C(=O)Nc1ccc2cc(-c3ccccc3N3CCOCC3)cnc2c1` [I-83, 2-Methyl-N-[3-(2-morpholinophenyl)-7-quinolyl]pyrazole-3-carboxamide]: above 1500 nM; `Cc1cc(/N=N/c2cccc3cccnc23)ccc1NC(=O)c1ccnn1C` [I-74]: above 1500 nM.

Turning to `Cc1ccccc1-c1ccc2c(C)c(NC(=O)c3ccnn3C)ccc2n1` [I-72], the half-maximal inhibitory concentration (IC50) was above 1500 nM. For `Cn1cncc1C(=O)Nc1ccc2cc(-c3ccccc3)cnc2c1` [I-79, 3-Methyl-N-(3-phenyl-7-quinolyl)imidazole-4-carboxamide] the value was above 1500 nM; for `Cc1cc(C#Cc2ccncc2)ccc1NC(=O)c1ccnn1C` [I-55, 2-Methyl-N-[2-methyl-4-[2-(4-pyridyl)ethynyl]phenyl]pyrazole-3-carboxamide], above 1500 nM. The compound `Cc1cc(C#CC2CCCCC2)ccc1NC(=O)c1ccnn1C` [I-54, N-[4-(2-Cyclohexylethynyl)-2-methyl-phenyl]-2-methyl-pyrazole-3-carboxamide] returned a half-maximal inhibitory concentration (IC50) above 1500 nM.

The compound `Cn1nccc1C(=O)Nc1ccc(C#Cc2ccccc2)cc1C(F)(F)F` [I-62] returned a half-maximal inhibitory concentration (IC50) above 1500 nM. As for `Cn1nccc1C(=O)Nc1ccc(C#Cc2ccccc2)cc1` [I-63, 2-Methyl-N-[4-(2-phenylethynyl)phenyl]pyrazole-3-carboxamide], the half-maximal inhibitory concentration (IC50) was above 1500 nM. Next, `Cn1nccc1C(=O)Nc1ccc2cc(-c3cccs3)cnc2c1` [I-46, 2-Methyl-N-[3-(2-thienyl)-7-quinolyl]pyrazole-3-carboxamide]: below 500 nM; `CC(=O)Nc1ccc2cc(-c3ccccc3)cnc2c1` [I-47, N-(3-Phenyl-7-quinolyl)acetamide]: above 1500 nM. Next, `Cn1nccc1C(=O)Nc1ccc2cc(-c3ncco3)cnc2c1` [I-45, 2-Methyl-N-(3-oxazol-2-yl-7-quinolyl)pyrazole-3-carboxamide]: 500 to 1000 nM.

For the compound `Cn1nccc1C(=O)Nc1ccc2nc(-c3ccccc3)cnc2c1` [I-65], the IC50 was in the range of 500 to 1000 nM. Next, `COc1cc(C#Cc2ccccc2)ccc1NC(=O)c1ccnn1C` [I-60, N-[2-Methoxy-4-(2-phenylethynyl)phenyl]-2-methyl-pyrazole-3-carboxamide]: above 1500 nM.

In turn, `Cn1nccc1C(=O)Nc1ccc2cc(-c3cccc(O)c3)cnc2c1` [I-82, N-[3-(3-Hydroxyphenyl)-7-quinolyl]-2-methyl-pyrazole-3-carboxamide] had a 50% inhibitory concentration (IC50) of 1000 to 1500 nM. Consider `Cc1ccccc1-c1ccc2cc(NC(=O)c3ccnn3C)ccc2c1` [I-52, 2-Methyl-N-[6-(o-tolyl)-2-naphthyl]pyrazole-3-carboxamide], for which the half-maximal inhibitory concentration (IC50) was above 1500 nM. In turn, `Cc1cc(C#Cc2cccnc2)ccc1NC(=O)c1ccnn1C` [I-56, 2-Methyl-N-[2-methyl-4-[2-(3-pyridyl)ethynyl]phenyl]pyrazole-3-carboxamide] registered an IC50 above 1500 nM.

`Cn1nccc1C(=O)Nc1ccc2cc(-c3nccs3)cnc2c1` [I-44, 2-Methyl-N-(3-thiazol-2-yl-7-quinolyl)pyrazole-3-carboxamide] came in with a half-inhibitory concentration (IC50) below 500 nM.

With `COc1ccccc1C#Cc1ccc(NC(=O)c2ccnn2C)c(C)c1` [I-64], the half-inhibitory concentration (IC50) is above 1500 nM. Next, `Cc1ccccc1/C=C/c1ccc(C(=O)Nc2ccnn2C)c(C)c1` [I-73]: above 1500 nM; `Cn1nccc1C(=O)Nc1ccc2cc(-c3ccsc3)cnc2c1` [I-48, 2-Methyl-N-[3-(3-thienyl)-7-quinolyl]pyrazole-3-carboxamide]: below 500 nM; `Cn1nccc1C(=O)Nc1ccc2cc(-c3ccc(C(F)(F)F)cc3)cnc2c1` [I-87, 2-Methyl-N-[3-[4-(trifluoromethyl)phenyl]-7-quinolyl]pyrazole-3-carboxamide]: above 1500 nM.

`CC#Cc1ccc(NC(=O)c2ccnn2C)c(C)c1` [I-61, 2-methyl-N-(2-methyl-4-prop-1-ynyl-phenyl)pyrazole-3-carboxamide] came in with a concentration for half-maximal inhibition (IC50) above 1500 nM. `Cn1nccc1C(=O)Nc1ccc2c(=O)n(-c3ccccc3)cnc2c1` [I-77, 2-Methyl-N-(4-oxo-3-phenyl-quinazolin-7-yl)pyrazole-3-carboxamide] returned a concentration for half-maximal inhibition (IC50) above 1500 nM.

In the case of `Cn1nccc1C(=O)Nc1ccc2cc(-c3ccc(O)cc3)cnc2c1` [I-86, N-[3-(4-Hydroxyphenyl)-7-quinolyl]-2-methyl-pyrazole-3-carboxamide], the half-inhibitory concentration (IC50) is above 1500 nM. For `Cn1nccc1C(=O)Nc1ccc2cc(-c3ccccc3)cnc2c1` [I-70] the value was below 500 nM; for `Cc1ccccc1-c1cnc2cc(NC(=O)c3ccnn3C)ccc2c1` [I-51, 2-Methyl-N-[3-(o-tolyl)-7-quinolyl]pyrazole-3-carboxamide], below 500 nM. For `O=C(Nc1ccc2cc(-c3ccccc3)cnc2c1)c1ccn[nH]1` [I-78, N-(3-Phenyl-7-quinolyl)-1H-pyrazole-5-carboxamide] the value was 500 to 1000 nM; for `Cc1cc(C#Cc2ccccn2)ccc1NC(=O)c1ccnn1C` [I-58, 2-Methyl-N-[2-methyl-4-[2-(2-pyridyl)ethynyl]phenyl]pyrazole-3-carboxamide], above 1500 nM. Next, `Cc1cc(C2CC2c2ccccc2)ccc1NC(=O)c1ccnn1C` (stereo not shown) [I-71]: above 1500 nM. In the case of `Cn1nccc1C(=O)Nc1ccc2cccnc2c1` [I-50, 2-Methyl-N-(7-quinolyl)pyrazole-3-carboxamide], the IC50 is above 1500 nM. Next, `Cc1cc(C#CC2CCNCC2)ccc1NC(=O)c1ccnn1C` [I-57, 2-Methyl-N-[2-methyl-4-[2-(4-piperidyl)ethynyl]phenyl]pyrazole-3-carboxamide]: above 1500 nM; `Cn1nccc1C(=O)Nc1ccc(C#Cc2ccccc2)c2c1OCO2` [I-59, 2-Methyl-N-[7-(2-phenylethynyl)-1,3-benzodioxol-4-yl]pyrazole-3-carboxamide]: above 1500 nM.
